From ChEMBL document CHEMBL1671789, “Evaluation of quinazoline analogues as glucocerebrosidase inhibitors with chaperone activity” (J Med Chem, 2011)
Activity calls are given as the source filed them. How the calls were made is not given here.

Legend:
[1] = Inhibition of alpha-galactosidase
[2] = Inhibition of alpha-glucosidase
Further: test concentration or dose not given here.

Activity [1] | Activity [2] | Structure (SMILES)
inactive | inactive | O=[N+]([O-])c1ccc(S(=O)(=O)N2CCN(c3nc(-c4cccs4)nc4ccccc34)CC2)cc1
inactive | inactive | O=S(=O)(c1cccc(Br)c1)N1CCN(c2nc(-c3cccs3)nc3ccccc23)CC1
inactive | inactive | CC(=O)c1ccc(S(=O)(=O)N2CCN(c3nc(-c4cccs4)nc4ccccc34)CC2)cc1
inactive | inactive | Cc1ccc(S(=O)(=O)N2CCN(c3nc(-c4ccncc4)nc4ccccc34)CC2)cc1
inactive | inactive | Cc1ccc(S(=O)(=O)N2CCN(c3nc(-c4cscn4)nc4ccccc34)CC2)cc1
inactive | inactive | O=S(=O)(/C=C/c1ccccc1)N1CCN(c2nc(-c3ccccc3)nc3ccccc23)CC1
inactive | inactive | O=S(=O)(c1ccc2ccccc2c1)N1CCN(c2nc(-c3ccccc3)nc3ccccc23)CC1
inactive | inactive | Cc1cccc(S(=O)(=O)N2CCN(c3nc(-c4cccs4)nc4ccccc34)CC2)c1
inactive | inactive | O=S(=O)(c1cccc(F)c1)N1CCN(c2nc(-c3cccs3)nc3ccccc23)CC1
inactive | inactive | O=S(=O)(c1ccc(Cl)cc1)N1CCN(c2nc(-c3cccs3)nc3ccccc23)CC1
inactive | inactive | Cc1ccc(S(=O)(=O)N2CCN(c3nc(-c4cncs4)nc4ccccc34)CC2)cc1
inactive | inactive | CC(=O)c1cccc(S(=O)(=O)N2CCN(c3nc(-c4cccs4)nc4ccccc34)CC2)c1
inactive | inactive | Cc1ccc(S(=O)(=O)N2CCN(c3nc(-c4ccoc4)nc4ccccc34)CC2)cc1
inactive | inactive | O=S(=O)(c1ccc(OC(F)(F)F)cc1)N1CCN(c2nc(-c3cccs3)nc3ccccc23)CC1
inactive | inactive | c1csc(-c2nc(N3CCN(Cc4ccc5c(c4)OCCO5)CC3)c3ccccc3n2)c1
inactive | inactive | O=S(=O)(c1ccccc1Br)N1CCN(c2nc(-c3ccccc3)nc3ccccc23)CC1
inactive | inactive | CC(C)(C)OC(=O)N1CCN(c2nc(-c3cccs3)nc3ccccc23)CC1
inactive | inactive | O=S(=O)(c1ccccc1Cl)N1CCN(c2nc(-c3ccccc3)nc3ccccc23)CC1
inactive | inactive | O=S(=O)(c1ccc(F)cc1)N1CCN(c2nc(-c3cccs3)nc3ccccc23)CC1
inactive | inactive | O=S(=O)(c1ccccc1Br)N1CCN(c2nc(-c3cccs3)nc3ccccc23)CC1
inactive | inactive | O=S(=O)(c1ccccc1)N1CCN(c2nc(-c3cccs3)nc3ccccc23)CC1
inactive | inactive | N#Cc1ccccc1S(=O)(=O)N1CCN(c2nc(-c3ccccc3)nc3ccccc23)CC1
inactive | inactive | O=S(=O)(c1cccc(C(F)(F)F)c1)N1CCN(c2nc(-c3ccccc3)nc3ccccc23)CC1

Activity [1] | Activity [2] | Structure (SMILES)
inactive | inactive | COc1cccc(S(=O)(=O)N2CCN(c3nc(-c4cccs4)nc4ccccc34)CC2)c1
inactive | inactive | O=[N+]([O-])c1cccc(S(=O)(=O)N2CCN(c3nc(-c4cccs4)nc4ccccc34)CC2)c1
inactive | inactive | CCOC(=O)c1ccccc1S(=O)(=O)N1CCN(c2nc(-c3cccs3)nc3ccccc23)CC1
inactive | inactive | O=S(=O)(c1ccc2ncccc2c1)N1CCN(c2nc(-c3cccs3)nc3ccccc23)CC1
inactive | inactive | CCOC(=O)c1ccc(S(=O)(=O)N2CCN(c3nc(-c4ccccc4)nc4ccccc34)CC2)cc1
inactive | inactive | O=S(=O)(c1ccc2c(c1)CCCC2)N1CCN(c2nc(-c3cccs3)nc3ccccc23)CC1
inactive | inactive | CC(=O)c1nc(N2CCN(S(=O)(=O)c3ccc(C)cc3)CC2)c2ccccc2n1
inactive | inactive | Cc1ccc(S(=O)(=O)N2CCN(c3cc(-c4cccs4)nc4ccccc34)CC2)cc1
inactive | inactive | CC(C)S(=O)(=O)N1CCN(c2nc(-c3cccs3)nc3ccccc23)CC1
inactive | inactive | O=S(=O)(Cc1ccccc1)N1CCN(c2nc(-c3cccs3)nc3ccccc23)CC1
inactive | inactive | Cc1ccc(S(=O)(=O)N2CCN(c3nc(-c4cccnc4)nc4ccccc34)CC2)cc1
inactive | inactive | Cc1ccc(S(=O)(=O)N2CCN(c3nc(-c4ccccc4)nc4ccccc34)CC2)cc1
inactive | inactive | Cc1ccc(S(=O)(=O)N2CCN(c3nc(-c4ccc(CN5CCNCC5)s4)nc4ccccc34)CC2)cc1
inactive | inactive | O=S(=O)(c1cccs1)N1CCN(c2nc(-c3cccs3)nc3ccccc23)CC1
inactive | inactive | NS(=O)(=O)c1ccc(S(=O)(=O)N2CCN(c3nc(-c4ccccc4)nc4ccccc34)CC2)cc1
inactive | inactive | COc1ccc(N2CCN(c3nc(-c4cccs4)nc4ccccc34)CC2)cc1
inactive | inactive | O=S(=O)(c1cc(Cl)cc(Cl)c1)N1CCN(c2nc(-c3cccs3)nc3ccccc23)CC1
inactive | inactive | CN1CCOc2cc(S(=O)(=O)N3CCN(c4nc(-c5cccs5)nc5ccccc45)CC3)ccc21
inactive | inactive | O=S(=O)(c1cccc(Cl)c1)N1CCN(c2nc(-c3ccccc3)nc3ccccc23)CC1
inactive | inactive | O=S(=O)(c1cnc2ccccc2c1)N1CCN(c2nc(-c3cccs3)nc3ccccc23)CC1
inactive | inactive | CC(C)(C)c1ccc(S(=O)(=O)N2CCN(c3nc(-c4ccccc4)nc4ccccc34)CC2)cc1
inactive | inactive | O=S(=O)(c1ccc2c(c1)OCO2)N1CCN(c2nc(-c3cccs3)nc3ccccc23)CC1
inactive | inactive | Cc1ccc(S(=O)(=O)N2CCN(c3nc(-c4ccc(C)s4)nc4ccccc34)CC2)cc1

Activity [1] | Activity [2] | Structure (SMILES)
inactive | inactive | CC(=O)c1ccc(S(=O)(=O)N2CCN(c3nc(-c4ccccc4)nc4ccccc34)CC2)cc1
inactive | inactive | O=S(=O)(NCCNc1nc(-c2ccco2)nc2ccccc12)c1ccccc1
inactive | inactive | O=C(c1ccc2c(c1)OCCO2)N1CCN(c2nc(-c3cccs3)nc3ccccc23)CC1
inactive | inactive | O=S(=O)(c1ccc(Cl)cc1)N1CCN(c2nc(-c3ccccc3)nc3ccccc23)CC1
inactive | inactive | CCOc1ccc(S(=O)(=O)N2CCN(c3nc(-c4ccccc4)nc4ccccc34)CC2)cc1OCC
inactive | inactive | O=S(=O)(c1cccnc1)N1CCN(c2nc(-c3cccs3)nc3ccccc23)CC1
inactive | inactive | COC(=O)c1nc(N2CCN(S(=O)(=O)c3ccc(C)cc3)CC2)c2ccccc2n1
inactive | inactive | Cc1ccc(S(=O)(=O)N(C)CCCN(C)c2nc(-c3cccs3)nc3ccccc23)cc1
inactive | inactive | O=S(=O)(c1ccc(F)cc1)N1CCN(c2nc(-c3ccccc3)nc3ccccc23)CC1
inactive | inactive | O=S(=O)(c1ccc(OC(F)(F)F)cc1)N1CCN(c2nc(-c3ccccc3)nc3ccccc23)CC1
inactive | inactive | O=S(=O)(c1ccc2c(c1)OCCO2)N1CCN(c2nc(-c3ccccc3)nc3ccccc23)CC1
inactive | inactive | COc1ccc(S(=O)(=O)N2CCN(c3nc(-c4ccccc4)nc4ccccc34)CC2)cc1
inactive | inactive | Cc1ccc(S(=O)(=O)N2CCN(c3nc(-c4ccc(CN5CCOCC5)s4)nc4ccccc34)CC2)cc1
inactive | inactive | Cc1ccc(S(=O)(=O)N2CCN(c3nc(-c4ncco4)nc4ccccc34)CC2)cc1
inactive | inactive | CC(C)(C)c1ccc(S(=O)(=O)N2CCN(c3nc(-c4cccs4)nc4ccccc34)CC2)cc1
inactive | inactive | O=S(=O)(/C=C/c1ccccc1)N1CCN(c2nc(-c3cccnc3)nc3ccccc23)CC1
inactive | inactive | O=S(=O)(c1ccc(Br)cc1)N1CCN(c2nc(-c3ccccc3)nc3ccccc23)CC1
inactive | inactive | Cc1ccccc1S(=O)(=O)N1CCN(c2nc(-c3cccs3)nc3ccccc23)CC1
inactive | inactive | Cc1ccc(S(=O)(=O)N2CCN(c3nc(-c4cccs4)nc4ccccc34)CC2)c(C)c1
inactive | inactive | O=S(=O)(c1ccc(Br)cc1)N1CCN(c2nc(-c3cccs3)nc3ccccc23)CC1
inactive | inactive | N#Cc1ccc(S(=O)(=O)N2CCN(c3nc(-c4ccccc4)nc4ccccc34)CC2)cc1
inactive | inactive | NS(=O)(=O)c1ccc(S(=O)(=O)N2CCN(c3nc(-c4cccs4)nc4ccccc34)CC2)cc1
